This note sets out measurements from patent US11866450B2, “Modulators of Cystic Fibrosis Transmembrane Conductance regulator, pharmaceutical compositions, methods of treatment, and process for making the modulators” (priority 2018, dated 2024).

Structures are written as SMILES. Read-outs that look alike come from different tables or passages of the source.

In data set [1] the target is CFTR-mediated chloride transport (Homo sapiens, UniProt P13569). It counts as cell-based. Particulars: enteroid cells incubated with test compound 18-24 hours, acute 10 μM forskolin and 300 nM Compound III; for Max. Activity: % of chloride transport with 3 μM Compound A, 3 μM Compound II and 300 nM acute Compound III triple combination control. The essentials:
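Human intestinal enteroid cells incubated with compound 18–24 h at 37° C., then membrane potential dye (FLIPR) read 15 min after chloride-free stimulation with 10 μM forskolin, 100 μM IBMX and 300 nM Compound III. AUC expressed as % of triple-combination control (3 μM Compound A, 3 μM Compound II, 300 nM Compound III).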

The conditions of data set [2]: snar bond.

Chain of CFTR-mediated chloride transport (P13569 whole entry, looked up): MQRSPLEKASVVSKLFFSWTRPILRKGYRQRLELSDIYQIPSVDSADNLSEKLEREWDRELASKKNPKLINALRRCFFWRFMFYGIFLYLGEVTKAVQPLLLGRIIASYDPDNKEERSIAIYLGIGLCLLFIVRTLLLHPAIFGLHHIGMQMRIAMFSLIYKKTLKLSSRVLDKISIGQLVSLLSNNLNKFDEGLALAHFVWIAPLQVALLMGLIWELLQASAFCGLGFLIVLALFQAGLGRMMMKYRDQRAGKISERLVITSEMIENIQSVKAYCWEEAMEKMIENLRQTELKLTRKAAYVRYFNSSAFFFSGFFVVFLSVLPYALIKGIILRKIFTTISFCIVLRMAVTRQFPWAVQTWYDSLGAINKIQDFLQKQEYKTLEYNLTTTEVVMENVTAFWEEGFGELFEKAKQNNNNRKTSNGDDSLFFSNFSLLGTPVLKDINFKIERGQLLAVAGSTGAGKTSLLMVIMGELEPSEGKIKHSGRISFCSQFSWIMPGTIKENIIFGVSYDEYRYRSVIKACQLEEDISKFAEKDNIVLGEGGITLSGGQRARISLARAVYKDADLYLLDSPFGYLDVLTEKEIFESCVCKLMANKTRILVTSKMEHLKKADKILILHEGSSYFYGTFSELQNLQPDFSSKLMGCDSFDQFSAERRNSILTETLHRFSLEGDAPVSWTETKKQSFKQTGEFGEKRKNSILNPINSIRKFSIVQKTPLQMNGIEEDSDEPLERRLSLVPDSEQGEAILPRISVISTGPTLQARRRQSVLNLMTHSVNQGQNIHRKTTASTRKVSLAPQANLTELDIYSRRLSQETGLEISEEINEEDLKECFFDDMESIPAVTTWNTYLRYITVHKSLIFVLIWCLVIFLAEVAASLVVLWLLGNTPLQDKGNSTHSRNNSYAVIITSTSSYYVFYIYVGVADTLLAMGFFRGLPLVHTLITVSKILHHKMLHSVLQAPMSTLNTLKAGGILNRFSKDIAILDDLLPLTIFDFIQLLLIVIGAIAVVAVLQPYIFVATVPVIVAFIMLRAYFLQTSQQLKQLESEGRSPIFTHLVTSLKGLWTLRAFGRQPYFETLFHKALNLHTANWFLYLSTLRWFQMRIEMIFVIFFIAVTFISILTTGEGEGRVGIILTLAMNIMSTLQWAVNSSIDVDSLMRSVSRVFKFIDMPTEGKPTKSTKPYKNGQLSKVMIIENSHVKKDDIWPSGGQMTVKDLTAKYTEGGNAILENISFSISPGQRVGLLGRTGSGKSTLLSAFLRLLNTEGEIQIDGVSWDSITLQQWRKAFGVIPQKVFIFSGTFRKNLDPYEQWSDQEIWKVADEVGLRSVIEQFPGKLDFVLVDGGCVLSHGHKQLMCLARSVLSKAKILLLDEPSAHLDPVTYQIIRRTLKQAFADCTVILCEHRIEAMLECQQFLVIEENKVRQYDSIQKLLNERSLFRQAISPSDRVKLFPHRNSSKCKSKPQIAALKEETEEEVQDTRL

Broadly, the EC50 is the concentration that produces a half-maximal response. As for `CC1(C)CC2CCNc3cccc(n3)S(=O)(=O)NC(=O)c3ccc(-n4ccc(OCCC5(C(F)(F)F)CC5)n4)nc3N1C2` (stereo not drawn) [Compound 20, 7,7-dimethyl-11-(3-{2-[1-(trifluoromethyl)cyclopropyl]ethoxy}-1H-pyrazol-1-yl)-17λ^6-thia-2,8,10,16,22-pentaazatetracyclo[16.3.1.15,8.09,14]tricosa-1(21),9,11,13,18(22),19-hexaene-15,17,17-trione], in data set [1], the EC50 was below 1000 nM and the “Max. Activity” value was “+++ (+++ is >60%)”. For the same molecule, the ring closure, isolated yield in data set [2] (from CC1(C)CC(CCNc2cccc(S(=O)(=O)NC(=O)c3ccc(-n4ccc(OCCC5(C(F)(F)F)CC5)n4)nc3Cl)n2)CN1, 14-membered ring, K2CO3/CsF/3A MS, DMSO, 54.4 mM, 155.0 °C) is 43%.

As for `CC1(C)CC2CCCCn3ccc(n3)S(=O)(=O)NC(=O)c3ccc(-n4ccc(OCCC5(C(F)(F)F)CC5)n4)nc3N1C2` (stereo not drawn) [Compound 39, 21,21-dimethyl-4-(3-{2-[1-(trifluoromethyl)cyclopropyl]ethoxy}-1H-pyrazol-1-yl)-10λ^6-thia-1,3,9,14,23-pentaazatetracyclo[17.2.1.111,14.02,7]tricosa-2,4,6,11(23),12-pentaene-8,10,10-trione], in data set [1], the 50% effective concentration (EC50) was 1000 to 3000 nM and the “Max. Activity” value was “+++ (+++ is >60%)”. Further, the ring closure, isolated yield in data set [2] (from CC(C)(C)OC(=O)N1CC(CCCCn2ccc(S(=O)(=O)NC(=O)c3ccc(-n4ccc(OCCC5(C(F)(F)F)CC5)n4)nc3Cl)n2)CC1(C)C, 15-membered ring, HCl (Boc off), K2CO3/CsF/3A MS, DMSO, 63.7 mM, 150.0 °C, 2 steps) turned out to be 37%.

For the molecule `CC1(C)CC2CCCCc3ccc(cc3)S(=O)(=O)NC(=O)c3ccc(-n4ccc(OCCC5(C(F)(F)F)CC5)n4)nc3N1C2` (stereo not drawn) [Compound 52, 12,12-dimethyl-8-(3-{2-[1-(trifluoromethyl)cyclopropyl]ethoxy}-1H-pyrazol-1-yl)-2λ^6-thia-3,9,11-triazatetracyclo[17.2.2.111,14.05,10]tetracosa-1(21),5,7,9,19,22-hexaene-2,2,4-trione], in data set [1], the concentration giving a half-maximal response (EC50) is below 1000 nM and the “Max. Activity” value is “++ (++ is 30-60%)”. For the same molecule, the ring closure, isolated yield in data set [2] (from CC1(C)CC(CCCCc2ccc(S(=O)(=O)NC(=O)c3ccc(-n4ccc(OCCC5(C(F)(F)F)CC5)n4)nc3Cl)cc2)CN1, 16-membered ring, K2CO3/CsF/3A MS, DMSO, 37.4 mM, 155.0 °C) was found to be 26%.

On to `CC1(C)CC2CCCCc3cccc(c3)S(=O)(=O)NC(=O)c3ccc(-n4ccc(OCCC5(C(F)(F)F)CC5)n4)nc3N1C2` (stereo not drawn) [Compound 53, 12,12-dimethyl-8-(3-{2-[1-(trifluoromethyl)cyclopropyl]ethoxy}-1H-pyrazol-1-yl)-2λ^6-thia-3,9,11-triazatetracyclo[17.3.1.111,14.05,10]tetracosa-1(22),5,7,9,19(23),20-hexaene-2,2,4-trione], for which, in data set [1], the EC50 is below 1000 nM and the “Max. Activity” value is listed as “+++ (+++ is >60%)”. In addition, the ring closure, isolated yield in data set [2] (from CC1(C)CC(CCCCc2cccc(S(=O)(=O)NC(=O)c3ccc(-n4ccc(OCCC5(C(F)(F)F)CC5)n4)nc3Cl)c2)CN1, 15-membered ring, K2CO3/CsF/3A MS, DMSO, 32.0 mM, 165.0 °C, 6.0 h) stood at 51%.

Consider `CC1(C)C[C@@H]2CCCNc3cccc(n3)S(=O)(=O)NC(=O)c3ccc(-n4ccc(OCCC(C5CC5)C5CC5)n4)nc3N1C2` [Compound 66, (14S)-8-[3-(3,3-dicyclopropylpropoxy)-1H-pyrazol-1-yl]-12,12-dimethyl-2λ^6-thia-3,9,11,18,23-pentaazatetracyclo[17.3.1.111,14.05,10]tetracosa-1(22),5,7,9,19(23),20-hexaene-2,2,4-trione], for which, in data set [1], the EC50 was below 1000 nM and the “Max. Activity” value was “+++ (+++ is >60%)”. This molecule also displayed a ring closure, isolated yield in data set [2] (from CC1(C)C[C@H](CCCNc2cccc(S(=O)(=O)NC(=O)c3ccc(-n4ccc(OCCC(C5CC5)C5CC5)n4)nc3Cl)n2)CN1, 15-membered ring, K2CO3/CsF, NMP, 75.7 mM, 150.0 °C, 20.0 h) of 63%.

In the case of `CC1(C)CC2CCCCOc3ccc(cn3)S(=O)(=O)NC(=O)c3ccc(-n4ccc(OCCC5(C(F)(F)F)CC5)n4)nc3N1C2` (stereo not drawn) [Compound 94, 12,12-dimethyl-8-(3-{2-[1-(trifluoromethyl)cyclopropyl]ethoxy}-1H-pyrazol-1-yl)-19-oxa-2λ^6-thia-3,9,11,21-tetraazatetracyclo[18.2.2.111,14.05,10]pentacosa-1(23),5,7,9,20(24),21-hexaene-2,2,4-trione], in data set [1], the EC50 was above 3000 nM and the “Max. Activity” value was “+ (+ is <30%)”. This molecule also registered a ring closure, isolated yield in data set [2] (from CC(C)(C)OC(=O)N1CC(CCCCOc2ccc(S(=O)(=O)NC(=O)c3ccc(-n4ccc(OCCC5(C(F)(F)F)CC5)n4)nc3Cl)cn2)CC1(C)C, 17-membered ring, HCl (Boc off), K2CO3/CsF/3A MS, DMSO, 59.4 mM, 150.0 °C, 2 steps) of 26%.

Turning to `CC1(C)CC2CCCn3cc(cn3)S(=O)(=O)NC(=O)c3ccc(-n4ccc(OCCC5(C(F)(F)F)CC5)n4)nc3N1C2` (stereo not drawn) [Compound 110, 20,20-Dimethyl-4-(3-{2-[1-(trifluoromethyl)cyclopropyl]ethoxy}-1H-pyrazol-1-yl)-10λ^6-thia-1,3,9,13,14-pentaazatetracyclo[16.2.1.111,14.02,7]docosa-2,4,6,11(22),12-pentaene-8,10,10-trione], in data set [1], the EC50 was below 1000 nM and the “Max. Activity” value was “++ (++ is 30-60%)”. This molecule also gave a ring closure, isolated yield in data set [2] (from CC(C)(C)OC(=O)N1CC(CCCn2cc(S(=O)(=O)NC(=O)c3ccc(-n4ccc(OCCC5(C(F)(F)F)CC5)n4)nc3Cl)cn2)CC1(C)C, 14-membered ring, HCl (Boc off), K2CO3/CsF/3A MS, DMSO, 44.8 mM, 155.0 °C, 2 steps) of 36%.

On to `CC1(C)CC2CCCCn3cc(cn3)S(=O)(=O)NC(=O)c3ccc(-n4ccc(OCCC5(C(F)(F)F)CC5)n4)nc3N1C2` (stereo not drawn) [Compound 122, 21,21-Dimethyl-4-(3-{2-[1-(trifluoromethyl)cyclopropyl]ethoxy}-1H-pyrazol-1-yl)-10λ^6-thia-1,3,9,13,14-pentaazatetracyclo[17.2.1.111,14.02,7]tricosa-2,4,6,11(23),12-pentaene-8,10,10-trione], for which, in data set [1], the EC50 is below 1000 nM and the “Max. Activity” value is given as “++ (++ is 30-60%)”. The same molecule came in with a ring closure, isolated yield in data set [2] (from CC(C)(C)OC(=O)N1CC(CCCCn2cc(S(=O)(=O)NC(=O)c3ccc(-n4ccc(OCCC5(C(F)(F)F)CC5)n4)nc3Cl)cn2)CC1(C)C, 15-membered ring, K2CO3/CsF/3A MS, DMSO, 41.5 mM, 155.0 °C, 2 steps) of 50%.

On to `CN1CCCC2CN(c3nc(-n4ccc(OCCC5(C(F)(F)F)CC5)n4)ccc3C(=O)NS(=O)(=O)c3cccc1n3)C(C)(C)C2` (stereo not drawn) [Compound 133, 12,12,18-trimethyl-8-(3-{2-[1-(trifluoromethyl)cyclopropyl]ethoxy}-1H-pyrazol-1-yl)-2λ^6-thia-3,9,11,18,23-pentaazatetracyclo[17.3.1.111,14.05,10]tetracosa-1(23),5(10),6,8,19,21-hexaene-2,2,4-trione], for which, in data set [1], the EC50 is below 1000 nM and the “Max. Activity” value is listed as “+++ (+++ is >60%)”. For the same molecule, the ring closure, isolated yield in data set [2] (from CN(CCCC1CNC(C)(C)C1)c1cccc(S(=O)(=O)NC(=O)c2ccc(-n3ccc(OCCC4(C(F)(F)F)CC4)n3)nc2Cl)n1, 15-membered ring, K2CO3/CsF/3A MS, DMSO, 30.3 mM, 165.0 °C, 4.0 h) is 42%.

Consider `CN1CCCC2CN(c3nc(-n4ccc(OCCC5(C(F)(F)F)CC5)n4)ccc3C(=O)NS(=O)(=O)c3ccc1nc3)C(C)(C)C2` (stereo not drawn) [Compound 140, 12,12,18-Trimethyl-8-(3-{2-[1-(trifluoromethyl)cyclopropyl]ethoxy}-1H-pyrazol-1-yl)-2λ^6-thia-3,9,11,18,20-pentaazatetracyclo[17.2.2.111,14.05,10]tetracosa-1(22),5,7,9,19(23),20-hexaene-2,2,4-trione], for which, in data set [1], the EC50 was below 1000 nM and the “Max. Activity” value is on record as “++ (++ is 30-60%)”. In data set [2] (from CN(CCCC1CNC(C)(C)C1)c1ccc(S(=O)(=O)NC(=O)c2ccc(-n3ccc(OCCC4(C(F)(F)F)CC4)n3)nc2Cl)cn1, 16-membered ring, K2CO3/CsF, DMSO, 10.2 mM, 200.0 °C, 1.5 h), the ring closure, isolated yield came to 12%.

In the case of `CC1(C)CC2CCCCCc3ccc(cn3)S(=O)(=O)NC(=O)c3ccc(-n4ccc(OCCC5(C(F)(F)F)CC5)n4)nc3N1C2` (stereo not drawn) [Compound 142, 12,12-Dimethyl-8-(3-{2-[1-(trifluoromethyl)cyclopropyl]ethoxy}-1H-pyrazol-1-yl)-2λ^6-thia-3,9,11,21-tetraazatetracyclo[18.2.2.111,14.05,10]pentacosa-1(23),5,7,9,20(24),21-hexaene-2,2,4-trione], in data set [1], the EC50 is below 1000 nM and the “Max. Activity” value is on record as “+ (+ is <30%)”. In data set [2] (from 2-chloro-N-[[6-[5-(5,5-dimethylpyrrolidin-3-yl)pentyl]-3-pyridyl]sulfonyl]-6-[3-[2-[1-(trifluoromethyl)cyclopropyl]ethoxy]pyrazol-1-yl]pyridine-3-carboxamide (dihydrochloride salt), 17-membered ring, K2CO3/CsF, DMSO, 63.0 mM, 165.0 °C), the ring closure, isolated yield came out at 36%.

For the molecule `CC1(C)CC2CCCCCc3ccc(nc3)S(=O)(=O)NC(=O)c3ccc(-n4ccc(OCCC5(C(F)(F)F)CC5)n4)nc3N1C2` (stereo not drawn) [Compound 143, 12,12-dimethyl-8-(3-{2-[1-(trifluoromethyl)cyclopropyl]ethoxy}-1H-pyrazol-1-yl)-2λ^6-thia-3,9,11,22-tetraazatetracyclo[18.2.2.111,14.05,10]pentacosa-1(23),5,7,9,20(24),21-hexaene-2,2,4-trione], in data set [1], the EC50 lay in the range of 1000 to 3000 nM and the “Max. Activity” value is on record as “+ (+ is <30%)”. Further, the ring closure, isolated yield in data set [2] (from CC1(C)CC(CCCCCc2ccc(S(=O)(=O)NC(=O)c3ccc(-n4ccc(OCCC5(C(F)(F)F)CC5)n4)nc3Cl)nc2)CN1, 17-membered ring, K2CO3/CsF, DMSO, 45.1 mM, 165.0 °C, 17.0 h) came to 11%.
